We go through seven molecules from EP0498830B1, “GLUTAMIC AND ASPARTIC ACID DERIVATIVES WITH ANTIGASTRIN ACTIVITY AND A METHOD FOR THEIR PREPARATION” (ROTTA RESEARCH LABORATORIUM S.P.A., priority 1989, dated 1991).

The structures appear in SMILES notation. Values after ≈ are worked out from the molar mass of the structure shown. Like-named read-outs stand apart in the source and are kept apart here. Where only a bound is given, the exact number is not on record here.

The subject of series [1] is gastric acid secretion induced by pentagastrin. Put plainly: Antisecretive activity in anaesthetised rats, stimulant pentagastrin. The series is classed as in vivo. The following applies: for ED50: Rattus norvegicus, iv, pentagastrin 30 mcg/kg/h, I.V. bolus, anaesthetised rats, read-out: Antagonistic activity (ED50 mg/kg IV) towards gastric acid secretion induced by pentagastrin. As to the method: The antisecretive activity was determined in rats with the use of male animals weighing about 200g, anaesthetised with urethane. Gastric secretion was stimulated with pentagastrin. K.S. Lai's method (Gut 5, (1964), 327-341) was used, with slight modifications.
After tracheotomy, oesophageal and duodenal cannulae were inserted. A tepid solution (37°C) of 0.25 mM NaOH was perfused through the stomach by means of a peristaltic pump at a constant flow rate of 1 ml/minute. After stabilisation for 20 minutes, the dose of the stimulant, indicated in Table 3, dissolved in a physiological solution, was perfused for 120 minutes at a rate of 0.95 ml/hour. After 60 minutes of perfusion (basic stimulation), the products under test were administered intravenously (I.V.) in boli whilst the perfusion of the stimulant continued for a further 60 minutes. The acid secretion was recorded continuously as a function of time.
The activity of the product was evaluated as the reduction in the secreted acidity after administration of the product as a percentage of the basic acidity measured during the first 60 minutes of collection during which only pentagastrin was present.
The antagonistic compounds tested were administered in different doses so that an ID50 (that is the dose (in mg/Kg I.V.) which can inhibit the effect of the pentagastrin by 50% could be calculated.
The results thus obtained are given in the following table in which the activities of the compounds are expressed as ID50s under the stimulus of pentagastrin at 30 mcg/Kg/h.

The target in series [2] is T1, gastrin receptor sites on the parietal cell membranes of the fundic mucosa of a guinea-pig stomach (Cavia porcellus, UniProt H0VZC5).
T1 sequence (H0VZC5 1-426): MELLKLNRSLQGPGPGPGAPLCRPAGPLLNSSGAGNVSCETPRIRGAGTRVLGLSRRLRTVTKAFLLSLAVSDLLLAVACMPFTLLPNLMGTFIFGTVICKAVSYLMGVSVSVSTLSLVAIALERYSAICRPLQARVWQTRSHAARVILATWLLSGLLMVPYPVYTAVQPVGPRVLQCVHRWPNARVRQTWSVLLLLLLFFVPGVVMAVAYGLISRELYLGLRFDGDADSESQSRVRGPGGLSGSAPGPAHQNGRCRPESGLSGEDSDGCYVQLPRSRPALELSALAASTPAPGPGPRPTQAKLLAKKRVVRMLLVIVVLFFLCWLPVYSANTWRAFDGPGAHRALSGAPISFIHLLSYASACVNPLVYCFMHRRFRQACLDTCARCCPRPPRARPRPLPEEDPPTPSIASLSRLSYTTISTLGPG
In words: Inhibition of binding of tritiated pentagastrin to isolated guinea-pig gastric glands. Set-up: from tissue; host or cells: isolated gastric glands from guinea-pig fundic mucosa (collagenase digestion). As to the method: The capacity of some of the compounds which are the subject of the invention to inhibit the binding of pentagastrin-[beta-alanyl-3-3H(N)] to the gastrin receptor sites on the parietal cell membranes of the fundic mucosa of a guinea-pig stomach was evaluated by comparison with the displacement of pentagastrin induced by proglumide, which is a reference antigastrin compound, by lorglumide, which is a powerful CCK antagonist mentioned above, and by the compound D5 which is the optical antipode (the L-series enantiomer) of the compound D1.
Male guinea pigs weighing about 400-500g were used. After the guinea pig had been killed, its stomach was removed and placed in oxygenated SPB buffer at 37°C (SPB = saline phosphate buffer: 149.6 mM NaCl, 3 mM K₂HPO₄, 0.64 mM NaH₂PO₄, pH 7.3).
After washing in the buffer, the stomach was placed on a petri dish and the antral part discarded.
The mucosa of the remaining part was removed from the underlying muscular part and was then chopped and transferred to a flask containing a collagenase digestion solution, 0.1% BSA and 0.2% glucose. The solution was incubated at 37°C for 10 minutes under agitation and a stream of 0₂.
During the incubation period, the tissue was passed several times through a series of pipettes with decreasing diameters in order to facilitate its digestion. At the end of the period, the tissue was removed and centrifuged at 1000 rpm. The supernatant liquid resulting from the centrifuging was discarded and the pellet washed several times with a washing buffer containing EPTA to remove the collagenase.
The glands were then isolated from the undigested tissue by conventional techniques, suspended in Hepes buffer for binding and incubated together with a radioactive tracer and the compounds under test for 30 minutes at 25°C.
After the supernatant liquid had been removed by centrifuging, the radioactivity associated with the pellet was determined with a liquid scintillator. The specific binding was determined as the difference between the binding in the absence and in the presence of 10⁻⁶ M pentagastrin.
The results obtained are shown in Table 1 which gives the IC50, that is, the concentration (in moles/litre) of the antagonist which can displace 50% of the pentagastrin tritiate from the receptor.

The subject of series [3] is guinea-pig gall bladders stimulated in vitro by CCK-8. In words: Anti-CCK activity on guinea-pig gall bladder contracted in vitro by CCK-8. The conditions noted are these: for IC50 ACTIVITY: CCK-8 10 ng/ml, at least three tests per compound. As to the method:
In order to check the hypothesis that the molecular conformation of the subject compounds is suitable to give them a specific antagonistic activity towards gastrin and not towards CCK, the anticontracturant activity of some of the compounds of the invention was tested on guinea-pig gall bladders stimulated in vitro by CCK-8.
A longitudinal strip of guinea-pig gall bladder was placed in a bath for isolated organs in the presence of Krebs at a temperature of 32°C, continuously oxygenated by an oxygen-CO₂ mixture (95-5 V/V).
The isometric contractions were detected by means of a force transducer and recorded.
The gall bladder was contracted with the use of a 10ng/ml concentration of CCK-8; the antagonistic activity of the compounds towards the contracturant effect of the CCK was determined with the use of different concentrations and the IC50 value, that is, the concentration in mcg/ml of the compound which is able to antagonise the contracturant effect of the CCK by 50%, thus determined.
The results obtained are set out in the table below which gives the compounds tested and the IC50s which were calculated by the regression method on a set of at least three tests for each compound investigated.

Series [4] concerns the target T2, central gastrin receptors (Mus musculus, UniProt P56481).
T2 sequence (P56481 1-453): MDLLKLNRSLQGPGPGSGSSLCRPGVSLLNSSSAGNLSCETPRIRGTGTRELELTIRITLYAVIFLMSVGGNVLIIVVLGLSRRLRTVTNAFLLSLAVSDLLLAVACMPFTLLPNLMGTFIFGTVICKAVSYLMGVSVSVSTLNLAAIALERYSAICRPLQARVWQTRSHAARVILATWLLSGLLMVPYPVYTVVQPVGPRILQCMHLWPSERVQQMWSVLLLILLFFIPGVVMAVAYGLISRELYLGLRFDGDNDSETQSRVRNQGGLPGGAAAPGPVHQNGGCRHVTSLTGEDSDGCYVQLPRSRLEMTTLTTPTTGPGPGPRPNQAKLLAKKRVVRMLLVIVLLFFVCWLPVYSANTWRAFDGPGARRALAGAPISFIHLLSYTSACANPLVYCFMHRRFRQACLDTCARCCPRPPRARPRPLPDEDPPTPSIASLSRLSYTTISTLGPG
Put plainly: Inhibition of binding of tritiated pentagastrin to mouse cerebral cortex membranes. Set-up: Mouse cortex tissue was homogenised cold in 20 volumes of tris buffer (pH 7.7); from tissue; host or cells: mouse cerebral cortex membranes; species or system mice. The conditions noted are these: for IC50: displacement of pentagastrin tritiate, 40 minutes at 37°C. As to the method: Cerebral cortex membranes were therefore used and pentagastrin tritiate was again used as the ligand.
Mouse cortex tissue was homogenised cold in 20 volumes of tris buffer (pH 7.7). After washing and centrifuging, the final pellet was resuspended in 20 volumes of binding buffer containing, inter alia, TRIS, BSA and bacitracin. 0.4 ml of the membrane thus obtained were then incubated with a radioactive tracer and with the compounds under test for 40 minutes at 37°C.
After the supernatant liquid had been removed by centrifuging, the radioactivity associated with the pellet was determined, again with a liquid scintillator. The specific binding is the difference between the binding in the absence and in the presence of 10⁻⁶M pentagastrin.
Again, this gives the IC50s of the compounds tested with the meaning as given above.

For a further series, the system named is fundic mucosa. In words: Pentagastrin-induced hyperplasia of the fundic mucosa in tumour-bearing mice. The series is classed as in vivo. The following applies: 20 days. As to the method: (§1) Male mice weighing 20-25g were inoculated subcutaneously in the interscapular region with a suspension of 8 x 10⁴ tumour cells of a mouse colic adenocarcinoma.
(§2) 5 groups each of 10 animals were used, that is : one control group of animals, one group of animals treated with 250 mcg/ml of pentagastrin twice a day and two groups of animals treated with the compound A-5 in doses of 15 and 30 mg/Kg i.p. respectively, twice a day, plus pentagastrin in the manner described above.
(§3) After 20 days, the animals were killed and the fundic mucosa and the tumours were removed, weighed and extracted in order to determine their DNA content.

In series [5] the test system is mouse colic adenocarcinoma. In words: Pentagastrin-induced growth of transplanted colic tumour in mice. The series is classed as in vivo. The conditions noted are these: 20 days. The protocol:
as §1, §2, §3

For another series, the system named is mice. In words: Acute toxicity LD50 IV in mice. The following applies: LD50 IV mice / ID50 IV rats.
The next series can be described thus: in vivo. The conditions noted are these: mouse, iv.
Series [6] deals with guinea-pig gall bladders stimulated in vitro by CCK-8. The conditions noted are these: CCK-8 10ng/ml; from U.S. Patent A-4 791 215; cited from earlier work.
Where [7] appears, read: displacement of 50% of pentagastrin tritiate, 30 minutes at 25°C, read-out: IC50.
Where [8] appears, read: PEG + A-5 15 mg/Kg i.p. twice a day.
Setting [9] is: PEG + A-5 30 mg/Kg i.p. twice a day.

Turning to `O=C(O)CCC(NC(=O)c1cccc(Cl)c1)C(=O)NC1CCCCC1` (racemic) [A7], the ED50 in series [1] was 93 mg/kg. Besides, in series [2] (setting [7]), the IC50 was determined as 17000 nM. Also, the “IC50 ACTIVITY” value in [3] was greater than 100 µg/mL.
On to `CCC(C)(C)CCNC(=O)C(CCC(=O)O)NC(=O)c1cccc(C)c1` (racemic) [A20], for which, in series [1], the ED50 came to 44 mg/kg. For the same molecule, the concentration for half-maximal inhibition (IC50) came out at 680 nM in [2] (setting [7]) and 830 nM in [4]. Further, in [3], the “IC50 ACTIVITY” value was greater than 100 µg/mL.
Turning to `CCC(C)(CC)CCNC(=O)C(CCC(=O)O)NC(=O)c1cccc(Cl)c1` (racemic) [A13], the ED50 in [1] stood at 33 mg/kg. In addition, the IC50 in [2] came out at 91 nM; in series [4], 92 nM. For the same molecule, in series [3], the “IC50 ACTIVITY” value is 32 µg/mL (≈ 80.6 µM). The “concentration relative to that of lorglumide” value in series [3] (times greater than lorglumide) was “about 500 times”.
`CCCCCNC(=O)C(CCC(=O)O)NC(=O)c1cccc(Cl)c1` (racemic) [A1]: the ED50 in [1] came out at 56 mg/kg. The IC50 in series [2] (setting [7]) turned out to be 2000 nM; in series [4] it was 6700 nM. Further, the “IC50 ACTIVITY” value in series [3] is greater than 100 µg/mL.
Take `CC(C)(C)CCNC(=O)C(CCC(=O)O)NC(=O)c1cccc(Cl)c1` (racemic) [A5, ( ± )-4-[(3-chlorobenzoyl)-amino]-5-(3,3-dimethylbutylamino)-5-oxopentanoic acid]: the “FUNDIC DNA” value in the series with fundic mucosa (setting [8]) is reported as 0.28 ± 0.02 mg; in the series on fundic mucosa (setting [9]) it was 0.23 ± 0.05 mg. The “WEIGHT OF THE FUNDIC MUCOSA” value in the series with fundic mucosa (setting [8]) stood at 25.1 ± 4.7 mg; in the series on fundic mucosa (setting [9]), 19.9 ± 2.1 mg. Further, in series [1], the ED50 amounted to 35 mg/kg. Besides, the IC50 in series [2] (setting [7]) was 80 nM; in series [4], 96 nM. Besides, the results for the “TUMOROUS DNA” value in series [5] (setting [8]) and in [5] (setting [9]) were 3.26 ± 0.49 mg and 2.87 ± 0.2 mg, respectively. Further, the “WEIGHT OF THE COLIC TUMOUR” value in [5] (setting [8]) worked out at 579.0 ± 40 mg; in series [5] (setting [9]) it was 559.5 ± 43 mg.
In the case of `CC(C)(C)CCNC(=O)[C@@H](CCC(=O)O)NC(=O)c1cccc(Cl)c1` [D1, D-4-(3-chlorobenzoylamino)-5-(3,3-dimethylbutylamino)-5-oxopentanoic acid], the ED50 in [1] turned out to be 28 mg/kg. In addition, the figures for the half-maximal inhibitory concentration (IC50) in series [2] (setting [7]) and in series [4] were 53 nM and 61 nM, respectively. Besides, the “IC50 ACTIVITY” value in [3] came out at 83 µg/mL (≈ 225 µM). Moreover, the “times more active than the corresponding L-enantiomers (compound D5)” value in series [4] (cortical membranes) is recorded as “about 10 times”. In the series with mice, the “toxic dose (LD50) relative to the antigastrin dose (ID50)” value is “about 20 times”. The same molecule had an LD50 in the series “in vivo” of roughly 600 mg/kg.
For the molecule `CCCCCN(CCCCC)C(=O)C(CCC(=O)O)NC(=O)c1ccc(Cl)c(Cl)c1` (stereo not drawn) [Lorglumide, reference compound], the “concentration inhibiting by 50% the contraction induced by CCK-8” value in series [6] was 0.06 µg/mL. The ED50 in series [1] was greater than 100 mg/kg. Further, the “activity against pentagastrin-induced acid secretion” value in [1] (up to a dose of 100 mg/Kg) was “completely inactive”. For the same molecule, the IC50 in series [2] (setting [7]) amounted to 11000 nM; in series [4], 6100 nM. For the same molecule, in series [2] (ratio of IC50s, gastric glands), the “times less active than the most powerful compounds of the series” value is “about 200 times”. In addition, the “IC50 ACTIVITY” value in series [3] was 0.06 µg/mL (≈ 0.131 µM). Further, the “times less powerful than the most active compounds” value in series [4] (ratio of IC50s, cortical membranes) is “about 100 times”.

One may read the IC50 as the midpoint of a concentration-inhibition curve. As a reminder, the LD50 is the dose expected to kill half of the subjects tested. Read a low LD50 as greater toxicity.
